Assay results as given in patent US10550109B2, “Crystal form of brexpiprazole and preparation method therefor” (Zhejiang Huahai Pharmaceutical Co., Ltd, priority 2016, dated 2020).

Assay: Comparison of stability (water content over time) of brexpiprazole solid forms at 25° C. and 60% ambient humidity
Type: physicochemical
Method: The comparation of the stability of brexpiprazole in the crystal form I, the dihydrated crystal form, the anhydrous crystal form and the amorphous form is shown in Table 1. The test in Table 1 was carried out at 25° C. and 60% ambient humidity.

| SMILES | Water Content (after 1 month) | Water Content (after 2 months) | Water Content (after 3 months) | Water Content (initial) | Water Content (after 1 month) (dihydrate) | Water Content (after 2 months) (dihydrate) | Water Content (after 3 months) (dihydrate) | Water Content (initial) (dihydrate) |
| --- | --- | --- | --- | --- | --- | --- | --- | --- |
| O=c1ccc2ccc(OCCCCN3CCN(c4cccc5sccc45)CC3)cc2[nH]1 [Amorphous form, 7-{4-[4-(1-benzothiophen-4-yl)piperazin-1-yl]butoxy}-1H-quinolin-2-one] | 0.13 wt. % | 0.22 wt. % | 0.40 wt. % | 0.02 wt. % |  |  |  |  |
| O=c1ccc2ccc(OCCCCN3CCN(c4cccc5sccc45)CC3)cc2[nH]1 [Anhydrous crystal form, 7-[4-(4-benzo[b]thiophen-4-yl-piperazin-1-yl)butoxy]-1H-quinolin-2-one] | 0.09 wt. % | 0.21 wt. % | 0.30 wt. % | 0.02 wt. % |  |  |  |  |
| O=c1ccc2ccc(OCCCCN3CCN(c4cccc5sccc45)CC3)cc2[nH]1 [Crystal form I, 7-{4-[4-(1-benzothiophen-4-yl)piperazin-1-yl]butoxy}-1H-quinolin-2-one] | 1.27 wt. % | 1.26 wt. % | 1.27 wt. % | 1.24 wt. % |  |  |  |  |
| O=c1ccc2ccc(OCCCCN3CCN(c4cccc5sccc45)CC3)cc2[nH]1 [Dihydrated crystal form, 7-[4-(4-benzo[b]thiophen-4-yl-piperazin-1-yl)butoxy]-1H-quinolin-2-one dihydrate] |  |  |  |  | 6.90 wt. % | 7.10 wt. % | 7.50 wt. % | 6.74 wt. % |
